One data set concerns C2C12 cells. Kind of data set: Toxicity (percent of cell death), C2C12 cells. Type of data set: cell-based. The conditions noted are these: 20 μM. On the procedure:
EphA4 kinase inhibition is assessed by both an enzymatic assay measuring the phosphorylation of a purified recombinant EphA4 kinase and a cell-based assay using the activation of pGas-Luciferase system in EphA4-transfected CHO-K1 cells. The functional effects of EphA4 RTK inhibitors on cell motility and proliferation is evaluated by the scratch wound assay. The effect of EphA4 RTK inhibitors is also directly measured on the cell confluence. The counterscreen assays (cell counterscreen, Src, Jak2 and P38α kinase) identified other potential inhibitory activities of compounds unrelated to EphA4 kinase. The toxicity is measured by the percent of cell death in the different cell assays. Values represent IC50 and IP in μM calculated from the dose-response curves. Values in parentheses give the maximum percent inhibition.

The target of the next data set is T1, P60c-src (Homo sapiens, UniProt P12931).
T1 construct: purchased Upstate biotechnology, USA
Put plainly: Src kinase counterscreen enzymatic assay (TR-FRET). It is filed as biochemical. As to conditions: 0.5 μM ATP. Here is the method:
Counterscreen assays were developed for the tyrosine kinases src kinase and jak2 kinase, with a format essentially identical to the EphA4 kinase TR-FRET format. Jak2 (50 ng) (Cell Signaling, USA) was incubated with 0.5 μM of biotinylated FLT3 peptide (Cell Signaling, USA) in presence of 5 μM of ATP (Sigma). P60c-src (10 U/well) (Upstate biotechnology, USA) was incubated with biotinylated Poly(Glu Tyr) peptide (100 nM) in presence of 0.5 μM of ATP. The enzymatic reaction was stopped after 60 min by adding 15 mM EDTA. The detection reaction and energy transfer signal measurements were similar to those previously described. Results were expressed as ratios of the absorbencies 665/615.
Compounds were titrated in duplicate at 11 points concentration starting at 100 μM with a 3 fold increment. Compounds were diluted in DMSO. […] Percentage inhibition for each compound was then calculated based on the value of the 100% inhibition. Concentration-response curves were represented and the concentrations for 50% inhibition (IC50) were calculated.
A general note: The purpose of a counterscreen is to sort out artefacts and off-target activity.

Data set [1] deals with T2, human form of EphA4 receptor (Homo sapiens, UniProt P54764).
T2 construct: expressed in transfected cells; host or cells: CHO-K1, transiently transfected with EphA4 in pCMV6-XL5
Kind of data set: EphA4 cell-based assay (pGAS-luciferase in EphA4-transfected CHO-K1 cells). The conditions noted are these: for IC50: inflexion point, read-out: EphA4 Cell Assay IP; for EphA4 Cell Assay maximum percent inhibition: value in parentheses. An excerpt: A cell-based assay was used to measure the potency of the compounds on the human form of EphA4 receptor over-expressed in Chinese Hamster Ovary cell line, CHO-K1 cells (Merck Collection). The cell assay was based on a novel signaling pathway of EphA4, which involves activation of the tyrosine kinase Jak2 and the transcriptional activator Stat3 (39).
Reagents: The expression constructs of EphA4 were subcloned into the expression vector pCMV6-XL5 (Origene, Md., USA) (clone from Merck Kinase Library). The luciferase construct that was linked to the Stat1-responsive enhancer (pGAS-Luc) was bought from Stratagene (USA). The renilla construct that linked to an empty vector CMV was bought from Promega (USA).
Transfection and Luciferase Assay: CHO-K1 cells were plated in T-175 cell culture bottle in DMEM medium supplemented with 10% fetal bovine serum, 1 mM sodium pyruvate, 2 mM L-glutamine and 1.5 g/L sodium bicarbonate. When cell reached 70-80% confluence, transfections were performed in T-175 culture flasks, using Lipofectamine 2000™ transfection reagent (Invitrogen) according to the manufacturer's directions. For the luciferase assay CHO-K1 cells were co-transfected the next day with […] of pGAS-Luc, 70 mg of EphA4, and 5 mg of empty vector pRL-CMV, which encoded the Renilla luciferase, and was included in the transfection mix for normalization. Six hours after transfection the cells were trypsinized and plated at 4.105 cells/ml into 96 well Black/Clear Poly-D-Lysine coated plates (Biocoat) that had been pre-spotted with compounds. Cells were lysed the next day using the Reporter Lysis Buffer (Promega), and the luciferase activity was measured using the Dual Luciferase Assay (Promega) following the manufacturer's directions. The Firefly and Renilla luminescences are read consecutively on a Top-Count (Perkin-Elmer). Results are expressed as a ratio of the two luminsescence: Firefly Luciferase/Renilla Luciferase. Cell viability was assessed on parallel plates using the Cell Glo Assay (Promega) following the manufacturer's directions. Results are expressed as percent of cell death in comparison with vehicle-treated wells.
Compounds were titrated in duplicate at 10 points concentration starting at 100 μM with a 1.5 fold increment. Concentration-response curves were represented and the concentrations at the inflexion point (IP) were calculated. The maximum effect was given by the maximum percent inhibition calculated from the results of the control wells (containing only DMSO).

Data set [2] deals with Primary Rat cortical astrocytes. Put plainly: Scratch wound assay, astrocytes. Type of data set: cell-based. Here is the method:
Primary Rat cortical astrocytes were purchased from Lonza (Walkersvelle Inc., MA, USA). Cells were plated in culture flasks at a density of 1.106-3.106 cells/ml, and maintained at 37° C. and […], in Astrocyte Growth Medium Bulletkit™ (Lonza Walkersville Inc., MA, USA). When astrocyte cultures reached confluence, cells were trypsinized and replated at 6.105 cells/ml onto 24 well ImageLock™ plate (Essen Instruments, Mich., USA).
Scratch wound assays are commonly used to assess the effects of drugs and drug candidates on the cellular proliferation and/or migration associated with wound closing. The IncuCyte™ system (Essen Instruments, Mich., USA), an automated imaging platform, provides ongoing, real-time images and quantitative data generated throughout the wound-closing process. […] Wound closure can be automatically monitored using the wound confluence (% confluence). […]
The calculation of the area under the curve (AUC) of the % confluence function of the time gave a quantitative measurement of compounds efficacy on the scratch wound closing. […] The percentage of inhibition was calculated from the AUCs at each dose in comparison with the AUCs of the control wells (1% DMSO). Concentration-response curves were represented and the concentrations at the inflexion point (IP) were calculated. […]

T2 sequence (P54764 20-986): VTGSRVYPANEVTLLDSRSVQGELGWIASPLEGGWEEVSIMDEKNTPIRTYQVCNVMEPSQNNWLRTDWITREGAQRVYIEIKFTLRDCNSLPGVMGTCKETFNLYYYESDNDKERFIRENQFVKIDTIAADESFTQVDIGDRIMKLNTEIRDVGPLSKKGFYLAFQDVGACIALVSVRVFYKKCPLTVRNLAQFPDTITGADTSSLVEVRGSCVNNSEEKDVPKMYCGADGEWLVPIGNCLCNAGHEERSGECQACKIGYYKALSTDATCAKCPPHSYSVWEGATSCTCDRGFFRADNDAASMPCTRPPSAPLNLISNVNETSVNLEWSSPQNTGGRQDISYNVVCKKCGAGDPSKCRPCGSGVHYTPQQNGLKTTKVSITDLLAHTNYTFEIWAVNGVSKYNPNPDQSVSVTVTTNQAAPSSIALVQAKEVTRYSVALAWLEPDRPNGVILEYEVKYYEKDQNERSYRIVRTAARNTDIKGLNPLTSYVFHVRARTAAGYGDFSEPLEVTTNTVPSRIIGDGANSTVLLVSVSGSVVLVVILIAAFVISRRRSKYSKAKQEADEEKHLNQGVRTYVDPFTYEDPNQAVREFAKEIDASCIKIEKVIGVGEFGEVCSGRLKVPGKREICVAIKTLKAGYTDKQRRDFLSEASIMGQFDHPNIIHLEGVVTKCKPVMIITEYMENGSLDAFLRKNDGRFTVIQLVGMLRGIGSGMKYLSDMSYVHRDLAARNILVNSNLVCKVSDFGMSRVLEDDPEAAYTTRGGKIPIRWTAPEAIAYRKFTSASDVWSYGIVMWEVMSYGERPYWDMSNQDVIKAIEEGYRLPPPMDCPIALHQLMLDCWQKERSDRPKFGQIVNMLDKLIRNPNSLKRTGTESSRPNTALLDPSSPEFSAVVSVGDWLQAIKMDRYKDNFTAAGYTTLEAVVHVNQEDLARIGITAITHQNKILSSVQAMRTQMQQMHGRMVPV
T1 sequence (P12931 whole entry): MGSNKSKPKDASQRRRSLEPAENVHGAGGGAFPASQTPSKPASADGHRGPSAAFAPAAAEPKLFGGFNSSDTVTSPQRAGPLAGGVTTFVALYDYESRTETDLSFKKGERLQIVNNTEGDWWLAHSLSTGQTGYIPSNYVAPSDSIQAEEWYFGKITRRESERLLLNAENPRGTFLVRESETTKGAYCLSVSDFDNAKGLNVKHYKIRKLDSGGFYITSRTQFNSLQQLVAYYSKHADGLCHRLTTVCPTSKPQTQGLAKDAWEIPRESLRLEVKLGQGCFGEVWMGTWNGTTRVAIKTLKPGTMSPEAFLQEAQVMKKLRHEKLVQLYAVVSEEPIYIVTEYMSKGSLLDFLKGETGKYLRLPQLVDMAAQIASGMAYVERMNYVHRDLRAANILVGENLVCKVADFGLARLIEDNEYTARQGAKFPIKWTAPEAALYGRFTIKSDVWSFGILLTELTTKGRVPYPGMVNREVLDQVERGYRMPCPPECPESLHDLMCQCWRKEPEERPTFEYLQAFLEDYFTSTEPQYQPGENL

Turning to `Cc1ccc(NC(=O)c2cccc(C(F)(F)F)c2)cc1-c1ccc(-n2cccn2)cc1` [Example 120], the “Max Toxicity C2C12 in cells % of cell death” value in the data set with C2C12 cells was determined as 10% 20 μM. This compound also came in with an IC50 on P60c-src of more than 100 µM. Further, in data set [1], the IC50 was found to be 5.6 µM and the “EphA4 Cell Assay maximum percent inhibition” value stood at 50%.

Take `Cc1ccc(NC(=O)c2cccc(C(F)(F)F)c2)cc1-c1ccc(O)c(NC=O)c1` [Example 133]: in the data set with C2C12 cells, the “Max Toxicity C2C12 in cells % of cell death” value is 10% 20 μM. Besides, the IC50 in data set [2] (Rattus norvegicus, Astrocyte, inflexion point, from AUC of % wound confluence, read-out: Scratch Assay Astrocytes IP) was 5 µM; against P60c-src, more than 100 µM; in data set [1] it was 8.3 µM. Moreover, in data set [2] (value in parentheses), the “Scratch Assay Astrocytes max inhibition in %” value was determined as 50%. In addition, in data set [1], the “EphA4 Cell Assay maximum percent inhibition” value turned out to be 42%.

The values are drawn from patent US20100197688A1, “EPHA4 RTK INHIBITORS FOR TREATMENT OF NEUROLOGICAL AND NEURODEGENERATIVE DISORDERS AND CANCER” (priority 2008, published 2010).
